Measurements taken from patent publication US5834452A, “1- or 6-hydroxylated steroids” (Roussel Uclaf, priority 1996, dated 1998).

Biological target: T1, Human mineralocorticoid receptor (HMR) (Homo sapiens, UniProt P08235)
T1 construct: made in house; host or cells: SF9 insect cells (baculovirus), lysate supernatant
T1 sequence (P08235 1-984): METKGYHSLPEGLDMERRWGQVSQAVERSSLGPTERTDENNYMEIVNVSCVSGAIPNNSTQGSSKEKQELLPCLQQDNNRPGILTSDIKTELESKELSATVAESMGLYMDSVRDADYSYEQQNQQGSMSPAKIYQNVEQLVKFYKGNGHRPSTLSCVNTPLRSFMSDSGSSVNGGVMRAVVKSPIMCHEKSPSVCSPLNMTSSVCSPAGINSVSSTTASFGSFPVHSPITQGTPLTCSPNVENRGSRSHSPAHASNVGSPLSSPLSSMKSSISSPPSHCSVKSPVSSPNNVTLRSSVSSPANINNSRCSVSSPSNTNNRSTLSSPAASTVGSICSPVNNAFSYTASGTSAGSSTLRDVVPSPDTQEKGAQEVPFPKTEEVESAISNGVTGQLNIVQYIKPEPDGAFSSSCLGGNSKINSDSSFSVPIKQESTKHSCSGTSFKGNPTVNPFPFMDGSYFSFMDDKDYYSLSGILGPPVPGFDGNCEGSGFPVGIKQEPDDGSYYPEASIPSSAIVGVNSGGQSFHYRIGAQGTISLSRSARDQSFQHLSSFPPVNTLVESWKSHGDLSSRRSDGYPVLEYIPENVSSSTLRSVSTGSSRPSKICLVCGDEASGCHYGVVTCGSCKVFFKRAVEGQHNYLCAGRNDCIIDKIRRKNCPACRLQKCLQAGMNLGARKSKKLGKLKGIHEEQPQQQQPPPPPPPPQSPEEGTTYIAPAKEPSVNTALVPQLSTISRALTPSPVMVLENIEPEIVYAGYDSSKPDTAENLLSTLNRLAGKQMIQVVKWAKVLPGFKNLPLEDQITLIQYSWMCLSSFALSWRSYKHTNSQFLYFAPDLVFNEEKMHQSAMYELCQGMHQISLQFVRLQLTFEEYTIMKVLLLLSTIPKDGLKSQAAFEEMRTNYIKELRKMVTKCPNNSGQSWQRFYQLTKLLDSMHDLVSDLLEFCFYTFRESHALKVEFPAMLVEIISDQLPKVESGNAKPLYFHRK
Assay: Relative bond affinity (RBA), recombinant human mineralocorticoid receptor, charcoal dextran technique
Format: binding
Conditions: 24 h at 0° C.; Aldosterone = 100
Text: The human recombinant receptor (HGR, HPR, HAR, HMR, HER) was used.
Human mineralocorticoid receptor (HMR):
A supernatant of SF9 cells containing the recombinant human mineralocorticoid receptor was obtained according to the process described above for the progestogen receptor using the cDNA fragment described by Baulieu et al (Proc. Natl. Acad. Sci., (1991), Vol. 88, p. 10681-10685) containing the region coding for the human mineralocorticoid receptor. The cells obtained were lysed in the lysis buffer (4). The supernatant was incubated at 0° C. for 24 hours with a constant concentration (T) of tritiated aldosterone in the presence of increasing concentrations of either unlabelled aldosterone (0 to 1000×10^-9 M), or the unlabelled product to be tested (1 to 25000×10^-9 M). The concentration of bound tritiated aldosterone (B) was then measured in each incubate using the charcoal dextran adsorption technique.
Calculation of the relative bond affinity (RBA).
The following two curves were drawn: the percentage of bound tritiated hormone B/BO as a function of the logarithm of the concentration of unlabelled reference hormone or as a function of the logarithm of the concentration of unlabelled test product. The straight line of the following equation was determined: […]
The relative bond affinity (RBA) of the test product was determined by the equation: […]

For `C[C@H](O)C(=O)[C@@]1(C)CC[C@H]2[C@@H]3C[C@@H](O)C4=CC(=O)CCC4=C3CC[C@@]21C` [Product B, [6β, 17β-(S)]-6-hydroxy-17-(2-hydroxy-1-oxopropyl)-17-methyl-Δ^4,9-estradiene-3-one], the “RBA, Human mineralocorticoid receptor” value was “no or negligible RBA's”.
